Experimental data taken from ChEMBL document CHEMBL1155668, “A new depsipeptide from the sacoglossan mollusk Elysia ornata and the green alga Bryopsis species” (J Nat Prod, 2000).
Active and inactive are the calls of the source.

What was measured:
Format in all cases: functional, cell-based
[1] = tested on: MEL28; assay: Growth inhibition of human MEL28 cells at 10 ug/mL
[2] = tested on: P388; assay: Growth inhibition of mouse P388 cells at 10 ug/mL
[3] = tested on: A549; assay: Growth inhibition of human A549 cells at 10 ug/mL
[4] = tested on: HT-29; assay: Growth inhibition of human HT29 cells at 10 ug/mL

Measured: Activity

CC[C@H](C)[C@@H]1NC(=O)[C@H]([C@@H](C)O)NC(=O)[C@@H](Cc2c[nH]c3ccccc23)NC(=O)[C@@H](Cc2ccc(O)cc2)NC(=O)[C@@H](NC(=O)CNC(=O)CCCC(C)C)[C@@H](C)OC(=O)[C@H](C(C)C)NC1=O
inactive: all assays above
